Our source for the Kd and EC50 values is US10947252B2, “Inhibitors of KEAP1-Nrf2 protein-protein interaction” (Janssen Pharmaceutica NV, priority 2018, dated 2021).

Assay [1] deals with Kelch domain of human KEAP1 (321-624 aa) (Homo sapiens (Human), UniProt Q14145). The experiment in a line: KEAP1 KELCH ThermoFluor binding assay.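 Also: Ligand-induced melting temperature shift of E. coli-expressed KEAP1 Kelch protein, Kd estimated from concentration-response curves of ΔTm.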 As to conditions: KEAP Kelch […], 1,8-ANS, pH 7.0, average of results obtained, read-out: Tf Kd.
For assay [2], the system named is Glo-Response ARE-luc2P HEK293 cell line. Kind of assay: ARE luciferase reporter cell-based assay.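 Also: luciferase signal tracks Nrf2 activation of the ARE once compounds disrupt KEAP1-Nrf2 binding, read with One-Glo reagent, DMSO serving as low control.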 The note with it: average of results obtained. (In general: A reporter such as luciferase makes a cellular process visible.)

SMILES strings stand for the structures. Bounds are passed on as bounds.

Chain of Kelch domain of human KEAP1 (321-624 aa) (Q14145 321-624): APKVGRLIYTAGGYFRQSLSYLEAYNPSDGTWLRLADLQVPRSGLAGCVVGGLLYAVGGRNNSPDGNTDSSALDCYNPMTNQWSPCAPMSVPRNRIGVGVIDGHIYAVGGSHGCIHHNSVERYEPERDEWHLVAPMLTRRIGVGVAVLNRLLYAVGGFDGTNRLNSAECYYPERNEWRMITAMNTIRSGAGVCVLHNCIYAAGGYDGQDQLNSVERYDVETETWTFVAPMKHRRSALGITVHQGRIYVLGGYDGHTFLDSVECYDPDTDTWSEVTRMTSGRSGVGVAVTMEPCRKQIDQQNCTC

Regarding `Cc1ccc([C@H](c2ccn3c(C(F)(F)F)nnc3c2C)C(C)(C)C(=O)O)cc1CN1CC2(CC2)Oc2nc(OCCN3CCC(F)CC3)c(C)cc2S1(=O)=O` (single isomer, unassigned) [Example 662, (*S)-3-(3-((7′-(2-(4-fluoropiperidin-1-yl)ethoxy)-8′-methyl-1′,1′-dioxidospiro[cyclopropane-1,4′-pyrido[2,3-b][1,4,5]oxathiazepin]-2′(3′H)-yl)methyl)-4-methylphenyl)-2,2-dimethyl-3-(8-methyl-3-(trifluoromethyl)-[1,2,4]triazolo[4,3-a]pyridine-7-yl)propanoic Acid], the Kd in assay [1] amounted to 0.568 µM. Moreover, in assay [2] (Homo sapiens, HEK293, 24 h), the 50% effective concentration (EC50) amounted to 0.308 µM.

As to `Cc1ccc(C(CC(=O)O)c2ccc3c(nnn3CC3CC3)c2C)cc1CN1C[C@@]2(C)CCCN2c2ncccc2S1(=O)=O` (stereo in doubt) [Example 80, 3-(1-(Cyclopropylmethyl)-4-methyl-1H-benzo[d][1,2,3]triazol-5-yl)-3-(4-methyl-3-(((*R)-7a-methyl-5,5-dioxido-7a,8,9,10-tetrahydropyrido[2,3-f]pyrrolo[2,1-d][1,2,5]thiadiazepin-6(7H)-yl)methyl)phenyl)propanoic Acid], in assay [1], the Kd was determined as 0.008 µM. This molecule registered an EC50 in assay [2] (Homo sapiens, HEK293, 24 h) of 0.306 µM.

For `Cc1ccc(C(c2ccc3c(nnn3CC3CC3)c2C)C(C)(C)C(=O)O)nc1CN1CC2(CCOCC2)Oc2nc(OCCN3CCOCC3)ccc2S1(=O)=O` (stereo not shown) [Example 327, 3-(1-(Cyclopropylmethyl)-4-methyl-1H-benzo[d][1,2,3]triazol-5-yl)-2,2-dimethyl-3-(5-methyl-6-((7′-(2-morpholinoethoxy)-1′,1′-dioxido-2,3,5,6-tetrahydrospiro[pyran-4,4′-pyrido[2,3-b][1,4,5]oxathiazepin]-2′(3′H)-yl)methyl)pyridin-2-yl)propanoic Acid], the Kd in assay [1] was under 0.001 µM. The molecule further registered an EC50 in assay [2] (Homo sapiens, HEK293, 24 h) of 0.0069 µM.

For `Cc1ccc([C@@H](c2ccn3c(C(F)(F)F)nnc3c2C)C(C)(C)C(=O)O)nc1CN1CC2(CCOCC2)Oc2nc(OCCN3CCOCC3)ccc2S1(=O)=O` (single isomer, unassigned) [Example 325, (*S)-2,2-Dimethyl-3-(8-methyl-3-(trifluoromethyl)-[1,2,4]triazolo[4,3-a]pyridin-7-yl)-3-(5-methyl-6-((7′-(2-morpholinoethoxy)-1′,1′-dioxido-2,3,5,6-tetrahydrospiro[pyran-4,4′-pyrido[2,3-b][1,4,5]oxathiazepin]-2′(3′H)-yl)methyl)pyridin-2-yl)propanoic Acid], the Kd in assay [1] is under 0.001 µM. Also, the EC50 in assay [2] (Homo sapiens, HEK293, 24 h) is 0.0172 µM.

Regarding `Cc1ccc([C@H](CC(=O)O)c2ccc3c(nnn3C)c2C(F)F)cc1CN1CC2CCCN2c2ncccc2S1(=O)=O` (single isomer, unassigned) [Example 73, (*R) 3-(4-(Difluoromethyl-1-methyl-1H-benzo[d][1,2,3]triazol-5-yl)-3-(3-(((R-5,5-dioxido-7a,8,9,10-tetrahydropyridi[2,3-f]pyrrolo[2,1-d][1,2,5]thiadiazepin-6(7H)-yl)methyl)-4-methylphenyl)propanoic Acid], in assay [1], the Kd worked out at 0.003 µM. Further, the midpoint of the response in assay [2] (24 hours), the EC50, lay at 0.6 µM.

`Cc1ccc([C@H](CC(=O)O)c2ccn3c(C(F)(F)F)nnc3c2C)cc1CN1CC2(CC2)Oc2nc(NCCN3CCOCC3)ccc2S1(=O)=O` (single isomer, unassigned) [Example 111, (*S)-3-(4-Methyl-((7′-((2-morpholinoethyl)amino)-1′,1′-dioxidospiro[cyclopropane-1,4′-pyrido[2,3-b][1,4,5]oxathiazepin]-2′(3′H)-yl)methyl)-4-methylphenyl)-3-(8-methyl-3-(trifluoromethyl)-[1,2,4 [triazolo[4,3-a]pyridine-7-yl)propanoic Acid]: in assay [1], the Kd was under 0.001 µM. In assay [2] (Homo sapiens, HEK293, 24 h), this molecule came in with an EC50 of 0.588 µM.

Regarding `Cc1ccc(C(CC(=O)O)c2ccn3c(C4CC4)nnc3c2C)cc1CN1C[C@H]2CCCN2c2ncccc2S1(=O)=O` (mixture of isomers) [Example 167, (R/S)-3-(3-Cyclopropyl-8-methyl-[1,2,4]triazolo[4,3-a]pyridin-7-yl)-3-(3-(((R)-5,5-dioxido-7a,8,9,10-tetrahydropyrido[2,3-f]pyrrolo[2,1-d][1,2,5]thiadiazepin-6(7H)-yl)methyl)-4-methylphenyl)propanoic Acid], the Kd in assay [1] is under 0.001 µM. This molecule also returned an EC50 in assay [2] (Homo sapiens, HEK293, 24 h) of 1.14 µM.

Take `Cc1ccc(C(CC(=O)O)c2ccc3c(nnn3C3CC3)c2C)cc1CN1C[C@@H]2CCCCN2c2ncccc2S1(=O)=O` (mixture of isomers) [Example 397, (R/S)-3-(1-Cyclopropyl-4-methyl-1H-benzo[d][1,2,3]triazol-5-yl)-3-(3-(((*S)-5,5-dioxido-7,7a,8,9,10,11-hexahydro-6H-dipyrido[2,1-d:2′,3′-f][1,2,5]thiadiazepin-6-yl)methyl)-4-methylphenyl)propanoic Acid]: in assay [1], the Kd was under 0.001 µM. In assay [2] (Homo sapiens, HEK293, 24 h), the EC50 stood at 0.011 µM.

`Cc1ccc(C(CC(=O)O)c2ccn3c(C(F)(F)F)nnc3c2C)cc1CN1C[C@H]2CCCN2c2ncccc2S1(=O)=O` (stereo partly drawn) [Example 264, 3-(3-(((R)-5,5-Dioxido-7a,8,9,10-tetrahydropyrido[2,3-f]pyrrolo[2,1-d][1,2,5]thiadiazepin-6(7H)-yl)methyl)-4-methylphenyl)-3-(8-methyl-3-(trifluoromethyl)-[1,2,4]triazolo[4,3-a]pyridin-7-yl)propanoic Acid]: in assay [1], the Kd is under 0.001 µM. In assay [2] (Homo sapiens, HEK293, 24 h), this molecule returned an EC50 of 0.0183 µM.

Turning to `Cc1ccc([C@@H](CC(=O)O)c2ccn3c(C(F)(F)F)nnc3c2C)cc1CN1C[C@H]2CCCCN2c2ncccc2S1(=O)=O` (single isomer, unassigned) [Example 273, (*R)-3-(3-(((*R)-5,5-Dioxido-7,7a,8,9,10,11-hexahydro-6H-dipyrido[2,1-d:2′,3′-f][1,2,5]thiadiazepin-6-yl)methyl)-4-methylphenyl)-3-(8-methyl-3-(trifluoromethyl)-[1,2,4]triazolo[4,3-a]pyridin-7-yl)propanoic Acid], the Kd in assay [1] was under 0.001 µM. In addition, in assay [2] (Homo sapiens, HEK293, 24 h), the EC50 worked out at 0.0258 µM.

With `Cc1cnc2c(c1)S(=O)(=O)N(Cc1cc([C@@H](c3ccn4c(C(F)(F)F)nnc4c3)C(C)(C)C(=O)O)ccc1C)CC1(CC1)O2` (single isomer, unassigned) [Example 323, (*S)-2,2-Dimethyl-3-(4-methyl-3-((8′-methyl-1′,1′-dioxidospiro[cyclopropane-1,4′-pyrido[2,3-b][1,4,5]oxathiazepin]-2′(3′H)-yl)methyl)phenyl)-3-(3-(trifluoromethyl)-[1,2,4]triazolo[4,3-a]pyridin-7-yl)propanoic Acid], the Kd in assay [1] is 0.298 µM. A half-maximal response in assay [2] (Homo sapiens, HEK293, 24 h) (EC50) required 16.2 µM.

As to `Cc1ccc([C@H](c2ccn3c(C(F)(F)F)nnc3c2C)C(C)(C)C(=O)O)cc1CN1C[C@H]2CCCCN2c2ncc(C#N)cc2S1(=O)=O` (single isomer, unassigned) [Example 423, (*R)-3-(3-(((*R)-3-cyano-5,5-dioxido-7,7a,8,9,10,11-hexahydro-6H-dipyrido[2,1-d:2′,3′-f][1,2,5]thiadiazepin-6-yl)methyl)-4-methylphenyl)-2,2-dimethyl-3-(8-methyl-3-(trifluoromethyl)-[1,2,4]triazolo[4,3-a]pyridin-7-yl)propanoic Acid], the Kd in assay [1] is 0.586 µM. In addition, in assay [2] (Homo sapiens, HEK293, 24 h), the EC50 worked out at 0.409 µM.

As for `Cc1ccc([C@@H](CC(=O)O)c2ccc3c(nnn3C3CC3)c2C)cc1CN1CC2(COC2)Oc2ccccc2S1(=O)=O` (single isomer, unassigned) [Example 216, (*R)-3-(1-Cyclopropyl-4-methyl-1H-benzo[d][1,2,3]triazol-5-yl)-3-(3-((1,1-dioxidospiro[benzo[b][1,4,5]oxathiazepine-4,3′-oxetan]-2(3H)-yl)methyl)-4-methylphenyl)propanoic Acid], in assay [1], the Kd came out at 0.002 µM. In assay [2] (Homo sapiens, HEK293, 24 h), this molecule yielded an EC50 of 0.038 µM.

`Cc1ccc([C@H](CC(=O)O)c2ccn3c(C(F)(F)F)nnc3c2C)cc1CN1C[C@@H]2CCCN2c2ccccc2S1(=O)=O` (single isomer, unassigned) [Example 274, (*S)-3-(3-(((S)-5,5-Dioxido-7a,8,9,10-tetrahydrobenzo[f]pyrrolo[2,1-d][1,2,5]thiadiazepin-6(7H)-yl)methyl)-4-methylphenyl)-3-(8-methyl-3-(trifluoromethyl)-[1,2,4]triazolo[4,3-a]pyridin-7-yl)propanoic Acid]: in assay [1], the dissociation constant Kd turned out to be 0.00119 µM. In assay [2] (Homo sapiens, HEK293, 24 h), the half-maximal effective concentration (EC50) was 0.0512 µM.

As to `Cc1ccc([C@@H](c2ccn3c(C(F)F)nnc3c2C)C(C)(C)C(=O)O)cc1CN1CC2(CCOCC2)Oc2ncccc2S1(=O)=O` (single isomer, unassigned) [Example 53, (*S)-3-(3-(Difluoromethyl)-8-methyl-[1,2,4]triazolo[4,3-a]pyridin-7-yl)-3-(3-((1′,1′-dioxido-2,3,5,6-tetrahydrospiro[pyran-4,4′-pyrido[2,3-b][1,4,5]oxathiazepin]-2′(3′H)-yl)methyl)-4-methylphenyl)-2,2-dimethylpropanoic Acid], in assay [1], the Kd was under 0.001 µM. Besides, a half-maximal effect in assay [2] (Homo sapiens, HEK293, 24 h) (EC50) was put at 0.0039 µM.

On to `Cc1ccc([C@@H](c2ccn3c(C(F)(F)F)nnc3c2C)C(C)(C)C(=O)O)cc1CN1CC2(CCOCC2)Oc2nc(OCCN3CCOCC3)ccc2S1(=O)=O` (single isomer, unassigned) [Example 47, (*S)-2,2-Dimethyl-3-(4-methyl-3-((7′-(2-morpholinoethoxy)-1′,1′-dioxido-2,3,5,6-tetrahydrospiro[pyran-4,4′-pyrido[2,3-b][1,4,5]oxathiazepin]-2′(3′H)-yl)methyl)phenyl)-3-(8-methyl-3-trifluoromethyl)-[1,2,4]triazolo[4,3-a]pyridine-7-yl)propanoic Acid], for which the dissociation constant (Kd) in assay [1] was under 0.001 µM. The same molecule had an EC50 in assay [2] (Homo sapiens, HEK293, 24 h) of 0.0179 µM.

On to `Cc1ccc(C(CC(=O)O)c2ccn3c(C(F)(F)F)nnc3c2C)nc1CN1CC2CCCCN2c2ncc(C#N)cc2S1(=O)=O` (stereo not shown) [Example 33, 3-(6-((3-Cyano-5,5-dioxido-7,7a,8,9,10,11-hexahydro-6H-dipyrido[2,1-d:2′,3′-f][1,2,5]thiadiazepin-6-yl)methyl)-5-methylpyridin-2-yl)-3-(8-methyl-3-(trifluoromethyl)-[1,2,4]triazolo[4,3-a]pyridin-7-yl)propanoic Acid], for which the Kd in assay [1] is under 0.001 µM. For the same molecule, a half-maximal effect in assay [2] (Homo sapiens, HEK293, 24 h) (EC50) was put at 0.0306 µM.

Usually Kd stands for the concentration at which binding is half-saturated. A word on the EC50: it is the concentration that produces a half-maximal response.
